Literature values as cited in patent US20260140098A1, “METHOD FOR TREATING PLASMA SAMPLE CONTAINING (7aS,2'S)-2-OXO-CLOPIDOGREL AND METHOD FOR DETERMINING THE SAME” (CHENGDU SHIBEIKANG BIOMEDICAL TECHNOLOGY CO., LTD., priority 2021, published 2026).

Legend:
CYP2B6 = CYP2B6 (Homo sapiens, UniProt P20813); conditions: by CYP2B6; cited from earlier work
CYP1A2 = CYP1A2 (Homo sapiens, UniProt P05177); conditions: by CYP1A2; cited from earlier work
CYP2C19 = CYP2C19 (Homo sapiens, UniProt P33261); conditions: by CYP2C19; cited from earlier work
Sequence of CYP2C19 (P33261 whole entry): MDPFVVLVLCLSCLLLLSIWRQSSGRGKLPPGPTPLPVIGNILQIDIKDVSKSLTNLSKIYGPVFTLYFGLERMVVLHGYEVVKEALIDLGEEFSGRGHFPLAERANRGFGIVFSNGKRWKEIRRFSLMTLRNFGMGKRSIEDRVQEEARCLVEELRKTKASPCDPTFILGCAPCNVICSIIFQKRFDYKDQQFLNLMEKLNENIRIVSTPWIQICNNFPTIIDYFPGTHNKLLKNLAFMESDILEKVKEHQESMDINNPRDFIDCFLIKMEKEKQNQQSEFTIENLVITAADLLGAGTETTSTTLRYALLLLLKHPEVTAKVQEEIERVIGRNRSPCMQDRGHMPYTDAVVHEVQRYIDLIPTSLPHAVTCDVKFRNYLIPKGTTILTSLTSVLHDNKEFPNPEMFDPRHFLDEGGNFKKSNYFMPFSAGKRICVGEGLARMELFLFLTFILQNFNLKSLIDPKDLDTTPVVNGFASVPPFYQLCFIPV

Sequence of CYP2B6 (P20813 whole entry): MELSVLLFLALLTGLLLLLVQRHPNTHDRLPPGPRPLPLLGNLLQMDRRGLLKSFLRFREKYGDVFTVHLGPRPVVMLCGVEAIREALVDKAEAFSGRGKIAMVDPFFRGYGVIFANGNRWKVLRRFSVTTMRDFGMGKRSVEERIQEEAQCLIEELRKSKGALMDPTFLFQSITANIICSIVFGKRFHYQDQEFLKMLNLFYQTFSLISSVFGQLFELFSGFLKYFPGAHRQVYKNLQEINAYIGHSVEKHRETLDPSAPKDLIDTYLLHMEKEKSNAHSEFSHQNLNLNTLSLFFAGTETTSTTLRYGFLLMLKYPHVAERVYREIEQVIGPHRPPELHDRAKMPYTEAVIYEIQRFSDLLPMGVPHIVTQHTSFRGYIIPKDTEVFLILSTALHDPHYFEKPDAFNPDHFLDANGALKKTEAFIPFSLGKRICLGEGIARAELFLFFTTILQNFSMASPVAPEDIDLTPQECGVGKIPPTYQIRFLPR
Sequence of CYP1A2 (P05177 whole entry): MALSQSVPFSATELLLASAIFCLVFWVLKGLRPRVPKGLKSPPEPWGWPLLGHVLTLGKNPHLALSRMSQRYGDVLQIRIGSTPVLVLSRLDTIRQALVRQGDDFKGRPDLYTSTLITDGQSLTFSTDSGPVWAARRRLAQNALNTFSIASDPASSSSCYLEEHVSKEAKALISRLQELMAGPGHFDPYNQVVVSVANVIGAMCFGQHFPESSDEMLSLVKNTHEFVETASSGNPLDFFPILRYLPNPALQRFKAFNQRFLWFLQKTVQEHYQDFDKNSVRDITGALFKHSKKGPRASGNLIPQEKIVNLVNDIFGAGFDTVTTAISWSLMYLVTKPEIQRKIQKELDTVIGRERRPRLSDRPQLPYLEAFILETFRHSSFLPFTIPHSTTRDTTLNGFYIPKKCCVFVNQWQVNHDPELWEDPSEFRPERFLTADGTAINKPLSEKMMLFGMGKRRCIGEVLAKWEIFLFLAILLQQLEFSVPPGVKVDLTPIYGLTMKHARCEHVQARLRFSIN

For COC(=O)[C@H](c1ccccc1Cl)N1CCc2sccc2C1 [clopidogrel], the “Share of Phase I metabolism into inactive 2-oxo-clopidogrel” value (“Share” for short) (CYP2B6) is listed as about 19%, the “Share” value (CYP1A2) is listed as about 36% and the “Share” value (CYP2C19) is listed as about 45%.
